The values that follow come from patent publication US8222004B2, “Diagnosis and treatment of autism using CD38” (National University Corporation Kanazawa University, priority 2006, dated 2012).

For data set [1], the system named is pituitary nerve terminals. The data set can be described thus: Oxytocin release from isolated pituitary nerve terminals (in vitro). In kind it is cell-based, mouse. The protocol: (§1) Cell bodies of hypothalamic neurons and nerve terminals were isolated according to a previously described method (OuYang, W., et al., Brain Res. 1024, 203-21.1 (2004)), then washed with a Locke solution, and homogenized in a solution containing sucrose, 270; HEPES-Tris, 10; and K-EGTA, 0.01 (in mM, pH 7.25). The homogenates were transferred to Petri dishies and left standing for 5 to 8 minutes.
Isolated cells and nerve terminals were left standing for 6 hours, and then, an experiment was started. The specimens were perfused for 45 minutes, and the perfusate was collected at last 5-minute intervals three times in total for control concentration measurement. Subsequently, the specimens were perfused for additional 5 minutes with Locke solution containing 70 mmol of KC1, and oxytocin concentrations in the obtained perfusates were determined using an oxytocin determination kit and considered as concentrations of oxytocin released by depolarization stimulation.

A further data set relates to isolated nerve terminals. The data set can be described thus: Intracellular Ca2+ concentration in isolated nerve terminals (Oregon Green). In kind it is cell-based, mouse. The note with it: wild-type mice; 50 mM KCl. The protocol:
as §1
The cells were incubated with Oregon Green for 1 hour to incorporate the dye into the cells. Subsequently, a fluorescence intensity of the cells was measured using an excitation wavelength of 485 nm and a filter of 538 nm. A fluorescence microspectrophotometer and a condenser with an ARGUS-50 CCD camera were used for the measurement.

Data set [2] addresses ADP-ribosyl cyclase activity (Homo sapiens, UniProt P28907, R140W). The note with it: mutated CD38 found in human diabetes; cited from earlier work.
In data set [3] the test system is male CD38−/− and wild-type mice. The data set is described as follows: Social memory of male mice (olfactory investigation time on repeated encounters). In kind it is in vivo, mouse. The following applies: subcutaneous, once, 1 to 10 ng/kg; for social memory (olfactory investigation): young male CD38−/− mice.
The next data set concerns students. The following applies: 194 students, intranasal administration, versus placebo; cited from earlier work.
Data set [4] has as its system postpartum female CD38−/− mice. The data set can be described thus: Maternal behaviors of postpartum female mice (pup retrieval, crouching) after subcutaneous peptide administration. It is filed as in vivo, mouse. The following applies: once, 1 to 10 ng/kg. Here is the method:
Then, each mother mouse was put back at a corner of a cage, and the pups were placed at remaining 3 corners. In this state, behaviors of the mother mouse were observed. A latency to retrieve each pup and a duration of crouching over 3 pups were also measured.
According to a previously described method (Boccia, M. M., et al., Neurobiol. Learn. Memory 69, 136-146 (1998)), oxytocin (OT) or vasopressin (AVP) dissolved in 0.05 M acetic acid was adjusted to 0.01 μM with saline, and this solution was subcutaneously administered once at a dose of 1 to 10 ng/kg body weight […] to the postpartum female CD38−/− mice (N=6 to 8) described above and young male mice (N=10 per group).

Sequence of ADP-ribosyl cyclase activity (P28907 whole entry R140W): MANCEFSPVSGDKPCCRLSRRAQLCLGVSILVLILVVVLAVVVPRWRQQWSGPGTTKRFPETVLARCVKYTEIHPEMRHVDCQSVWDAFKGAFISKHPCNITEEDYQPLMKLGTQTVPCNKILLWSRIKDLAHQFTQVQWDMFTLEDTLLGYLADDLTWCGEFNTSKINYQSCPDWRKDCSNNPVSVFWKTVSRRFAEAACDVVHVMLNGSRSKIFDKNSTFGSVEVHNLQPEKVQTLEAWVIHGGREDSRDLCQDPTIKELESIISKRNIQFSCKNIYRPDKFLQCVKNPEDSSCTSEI

As for `Nc1ncnc2c1ncn2[C@@H]1O[C@H](COP(=O)(O)OP(=O)(O)OCC2OC([n+]3cccc(C(=O)[O-])c3)C(O)C2O)[C@@H](O)[C@H]1OP(=O)(O)O` (stereo in doubt) [NAADP, nicotinate adenine dinucleotide phosphate], in data set [1] (all the mice, initially stimulated with Ca2+, 100 nM given outside the cells), the “oxytocin release from the pituitary nerve terminals” value is “promoted”. As for ryanodine, in data set [1] (wild-type mice, 200 μM, high-potassium depolarization), the “oxytocin release from the pituitary nerve terminals” value is given as “decreased to same levels as those in the CD38−/− mice”. The “increase in intracellular Ca2+ concentration” value in the data set on isolated nerve terminals is recorded as “significantly inhibited”. “mutated CD38: human CD38 with substitution of tryptophan for arginine at position 140, found in human diabetes”: in data set [2], the “ADP-ribosyl cyclase activity relative to normal” value is reported as “about ⅓”. `N=c1c2ncn3c2ncn1[C@@H]1O[C@H](COP(=O)(O)OP(=O)(O)OC[C@H]2O[C@@H]3[C@H](O)[C@@H]2O)[C@@H](O)[C@H]1O` [cADPR, cyclic ADP-ribose]: the “increase of oxytocin release” value in data set [1] (CD38−/− mice, pituitary nerve terminals, 10 μM) was 2.5 fold. Besides, the “oxytocin release from the pituitary nerve terminals” value in data set [1] (all the mice, initially stimulated with Ca2+, 10 μM given outside the cells) is “promoted”. For the molecule `NC(=O)CC[C@@H]1NC(=O)[C@H](Cc2ccccc2)NC(=O)[C@H](Cc2ccc(O)cc2)NC(=O)[C@@H](N)CSSC[C@@H](C(=O)N2CCC[C@H]2C(=O)N[C@@H](CCCN=C(N)N)C(=O)NCC(N)=O)NC(=O)[C@H](CC(N)=O)NC1=O` [vasopressin], in data set [3], the “change in behaviors of wild-type mice” value was “no change” and the “social memory (olfactory investigation)” value is reported as “no detectable change”. As for `CO/C1=C\C(C)=C\[C@@H](C)[C@@H](O)[C@@H](C)C/C(C)=C/C=C/[C@H](OC)[C@@H]([C@@H](C)[C@@H](O)[C@H](C)[C@@]2(O)C[C@@H](O)[C@H](C)[C@@H](C(C)C)O2)OC1=O` [bafilomycin], in data set [1] (wild-type mice, 2 μM, high-potassium depolarization), the “oxytocin release from the pituitary nerve terminals” value is reported as “decreased to same levels as those in the CD38−/− mice”. On to `CC[C@H](C)[C@@H]1NC(=O)[C@H](Cc2ccc(O)cc2)NC(=O)[C@@H](N)CSSC[C@@H](C(=O)N2CCC[C@H]2C(=O)N[C@@H](CC(C)C)C(=O)NCC(N)=O)NC(=O)[C@H](CC(N)=O)NC(=O)[C@H](CCC(N)=O)NC1=O` [oxytocin], for which, in the data set with students, the “investment in an investment game (trust, prosocial behavior)” value was “invested more money and more frequently invested a maximum allowable than the placebo group”. Further, in data set [3], the “change in behaviors of wild-type mice” value is on record as “no change” and the “social memory (olfactory investigation)” value is “recovered a social memory”. In addition, the “maternal behaviors (latency to retrieve pups, duration of crouching)” value in data set [4] was “recovered to same levels of maternal behaviors as those of the wild-type mice”. For the molecule 8-bromo-cADPR, the “oxytocin release from the pituitary nerve terminals” value in data set [1] (wild-type mice, 100 μM, high-potassium depolarization) was “decreased to same levels as those in the CD38−/− mice”. For the same molecule, the “increase in intracellular Ca2+ concentration” value in the data set with isolated nerve terminals is given as “significantly inhibited”.
